The NIST ThermoML archive (doi:10.1021/acs.jced.6b00686)
Numbers after ± are expanded uncertainties.

Test: refractive index (Na D-line) (dimensionless)
Details: 293.15 K; 101.3 kPa; Liquid; Standard Abbe refractometry

Row | Compound | refractive index
1 | O=C(O)CS [2-mercaptoacetic acid] | 1.5027 ± 0.0005
2 | CC(=O)OCC(C)C [2-methylpropyl ethanoate] | 1.3905 ± 0.0005
3 | CCCCOC(C)=O [butyl ethanoate] | 1.394 ± 0.0005
4 | CCCCOC=O [butyl methanoate] | 1.3887 ± 0.0005
5 | O [water] | 1.3327 ± 0.0005
